{
  "source": "patent US20260286302A1",
  "about": "“METHODS FOR PRODUCING A SUPER CENTRAL MEMORY CD8 T CELL SUBTYPE BY POLY(ADP-RIBOSE) POLYMERASE (PARP) INHIBITION AND USES THEREOF” (Georgetown University, priority 2023, published 2026)",
  "key": {"TC-1 tumors": {"system": "TC-1 tumors", "assay": "TC-1 tumor model: tumor growth and survival", "type": "in vivo, mouse", "conditions": "for mice survived: TC-1 tumor model, day 22", "description": "C57BL/6J mice were injected with 7×10^4 TC-1 cells per mouse or 1×10^5B16F10 cells per mouse in the right flank. Treatment in respective groups was started when tumors reached an average size of approximately 0.075 cm^3. […] Mice were treated daily with IP injection at a dose of 50 mg kg-1.\nFor vaccination, TC-1-specific E7 peptide (a nine amino acid peptide, […] (SEQ ID NO: 1); 100 μg per mouse per 100 μl; Celtak Bioscience) or B16-specific gp10025-33 nonamer peptide ([…] (SEQ ID NO: 2); 100 μg per mouse per 100 μl; AnaSpec) were used. Both the vaccines were mixed with a small 13-mer nonnatural pan-HLA DR-binding epitope (PADRE (SEQ ID NO: 3); aK-Cha-[…]a (SEQ ID NO: 4), where ‘a’ is d-alanine, and ‘Cha’ is 1-cyclohexylalanine, T helper epitope, 20 μg per mouse; Celtak Bioscience) and QuilA (adjuvant, 10 μg per mouse; Brenntag). For survival and therapy experiments, mice were vaccinated three times, starting at an average tumor size of 0.07 cm^3, while for immune response experiments mice were vaccinated twice with a one-week interval between vaccinations. Tumors were measured every 3-4 days using a digital vernier caliper, and the tumor volume was calculated using the formula: V=L×W2/2000, where V is tumor volume, L is the length of the tumor (longer diameter) and W is the width of the tumor (shorter diameter). Mice were monitored for tumor growth and survival. Mice were euthanized when the tumor volume reached 1.5 cm^3."}, "pMel-1 CD8 T cells": {"system": "pMel-1 CD8 T cells", "assay": "Metabolomics and lipidomics of activated CD8 T cells", "type": "cell-based, mouse", "conditions": "PARPi-treated vs gp100 activated, 48 h", "description": "Targeted metabolomics method, developed in-house, was used to quantitate 270 endogenous metabolites using QTRAP® 7500 LC-MS/MS System (Sciex, MA, USA). For this purpose, 20 μL of PBS was added to the cell pellet and sample tube was plunged into dry ice for 30 seconds and 37° C. water bath for 90 seconds. This cycle was repeated for two more times and then samples were sonicated for 1 minute and 100 μL of extraction buffer (methanol/water 50/50) containing 200 ng/ml of debrisoquine (DBQ) as internal standard for positive mode and 200 ng/mL of 4-nitrobenzoic acid as internal standard for negative mode was added. The samples were vortexed for 1 min and kept on ice for 20 minutes followed by addition of 100 μL of ACN. The samples were incubated at −20° C. for 20 minutes for protein precipitation. The samples were centrifuged at 13,000 rpm for 20 minutes at 4° C. The supernatant was transferred to MS vial for LC-MS analysis. 20 μL of each prepared sample was mixed to generate the pooled QC sample.\nFive microliter of the prepared sample was injected onto a Kinetex 2.6 μm polar C18 100 Å 100×3.0 mm (Phenomenex, CA, USA) using SIL-30AC autosampler (Shimadzu) connected with a high flow LC-30AD solvent delivery unit (Shimadzu) and CBM-20A communication bus module (Shimadzu) online with QTRAP 5500 (Sciex, MA, USA) operating in positive and negative ion mode. A binary solvent comprising of water with 0.1% formic acid (solvent A) and acetonitrile with 0.1% formic acid (solvent B) was used. The extracted metabolites were resolved at 0.2 mL/min flow rate. The LC gradient conditions were as follows: Initial—100% A, 0% B for 2.1 minutes; 14 minutes—5% A, 95% B till 15 minutes; 15.1 minutes—100% A, 0% B till 20 minutes. The auto sampler and oven were kept at 15° C. and 30° C., respectively. Source and gas setting for the method were as follow: curtain gas=40, CAD gas=9, ion spray voltage=1700 V in positive mode and ion spray voltage=1600 V in negative mode, temperature=350° C., ion source gas 1=30 and ion source gas 2=50. […]"}, "B16F10": {"system": "B16F10", "assay": "Tumor growth in immune deficient nude mice (B16F10)", "type": "in vivo, mouse", "description": "The effect of PARPi on direct CD8 T cell-driven anti-tumor immune response remains poorly understood. Therefore, to dissect this effect, the anti-tumor immune effect of PARPi was tested in vivo in tumor models that require T cell priming, which helps delineate the direct effect of the drug on CD8 T cells. […] While 18% and 10% of mice survived in the vaccine-treated and PARPi-treated groups, respectively, in the TC-1 tumor model at day 22, 90% survived when PARPi was added to the vaccine. Similarly, in the B16F10 tumor model, 10% of the mice treated with vaccine alone were alive at day 22, compared to 40% when PARPi was added."}},
  "data": [
    {"molecule": "O=C(c1cc(Cc2n[nH]c(=O)c3ccccc23)ccc1F)N1CCN(C(=O)C2CC2)CC1", "note": "[olaparib]", "values": [
      {"measurement": "tumor growth and survival, enhancement of anti-tumor immune response of the vaccine", "setting": "TC-1 tumors; TC-1, PARPi 50 mg/kg IP daily in combination with HPV E7 vaccine", "value": "significantly retarding tumor growth and prolonging survival"},
      {"measurement": "anti-tumor effect after depletion of CD8 T cells", "setting": "TC-1 tumors; TC-1, PARPi with vaccine, CD8 T cell depleting antibodies", "value": "loss of the anti-tumor effect"},
      {"measurement": "mice survived", "setting": "TC-1 tumors; PARPi added to the vaccine (HPV E7)", "value": 90, "unit": "%"},
      {"measurement": "mice survived", "setting": "TC-1 tumors; treatment alone", "value": 10, "unit": "%"},
      {"measurement": "TAGs (lipidomic analysis)", "setting": "pMel-1 CD8 T cells", "value": "increased level"},
      {"measurement": "metabolites related to TCA cycle (fumarate, malate, glutamate, FAD)", "setting": "pMel-1 CD8 T cells", "value": "significantly increased"},
      {"measurement": "top 50 differentially expressed metabolites", "setting": "pMel-1 CD8 T cells", "value": "increased"},
      {"measurement": "tumor growth", "setting": "B16F10", "value": "did not affect tumor growth"}
    ]}
  ]
}
